# Measured values from patent publication US8067615B2, “Sulphonylpyrroles” (4SC AG, priority 2004, dated 2011).
# Key:
# [1] = test system: HeLa cervical carcinoma cells; assay: Cellular cytotoxicity assay (Alamar Blue / Resazurin); type: cell-based; conditions: Homo sapiens, 48 hours incubation
# Procedure: The anti-proliferative activity of the histone deacetylase inhibitory compounds as described herein, was evaluated with the HeLa cervical carcinoma cell line (ATCC CCL2) using the Alamar Blue (Resazurin) cell viability assay (O'Brien et al. Eur J Biochem 267, 5421-5426, 2000). Resazurin is reduced to the fluorescent resorufin by cellular dehydrogenase activity, correlating with viable, proliferating cells. Test compounds were dissolved as 10 mM solutions in dimethylsulfoxide (DMSO) and subsequently diluted in semi-logarithmic steps. HeLa cells were seeded into 96 well flat bottom plates at a density of 3000 cells per well in a volume of […] per well. 24 hours after seeding 1 μl each of the compound dilutions were added into each well of the 96 Well plate. Each compound dilution was tested as quadruplicates. Wells containing untreated control cells were filled with 200 μl DMEM medium containing 0.5% v:v DMSO. The cells were then incubated with the substances for 48 hours at 37° C. in a humidified atmosphere containing 5% carbon dioxide. To determine the viability of the cells, 20 μl of an Resazurin solution (Sigma; 90 mg/l) were added. After 4 hours incubation at 37° C. the fluorescence was measured at an […] of 544 nm and an emission of 590 nm. For the calculation of the cell viability the emission value from untreated cells was set as 100% viability and the emission rates of treated cells were set in relation to the values of untreated cells. Viabilities were expressed as % values. The corresponding IC50 values of the compounds for cytotoxic activity are determined from the concentration-effect curves by means of non-linear regression.
# [2] = test system: histone H3K23 hyperacetylation in HeLa cervical carcinoma cells; assay: Cellular histone H3 hyperacetylation assay; type: cell-based; conditions: Homo sapiens, 24 h with compound, read-out: Induction of histone H3K23 hyperacetylation EC50
# From the text: To assess the cellular efficacy of an histone deacetylase inhibitor in vitro, an assay was set up in black clear-bottom 96-well plates and optimized for use on the Cellomics “ArrayScan II” platform for a quantitative calculation of […] acetylation. The protocol uses a polyclonal rabbit antibody, specifically binding to acetylated lysine 23 of human histone H3 on fixed cells with an Alexa Fluor 488 labeled goat anti rabbit-IgG used for counterstaining (Braunger et al. AACR annual conference 2003, Abstract 4556). 5×10^3 HeLa cervical carcinoma cells/well (ATCC CCL-2) in 200 μl Dulbecco's modified Eagle's medium (DMEM) containing 10% fetal calf serum were seeded at day 1 in Packard view plates and incubated for 24 h under standard cell culture conditions. On day 2, 2 μl test compound (100× final concentration) was added and incubation continued for further 24 h. On day 3, the culture medium was discarded and attached cells fixed for 15 min at room temperature by addition of 100 μl fixation buffer (3.7% v:v formaldehyde in phosphate buffered saline/PBS). After discarding the fixation buffer and one wash with PBS, cells were permeabilized at room temperature by addition of 100 μl/well permeabilization buffer (30.8 mM NaCl, 0.54 mM Na2HPO4, 0.31 mM KH2PO4, 5% v:v Triton X-100) for 15 min at room temperature. After discarding the permeabilization buffer and addition of 100 μl/well blocking solution (PBS with 0.05% v:v Tween 20 and 5% w:v milk powder) for 30 min at room temperature, the 1st antibody (anti-K23 histone H3 antibody, Cell Signaling No. 9674) in blocking solution (50 μl/well) was added. After incubation for 1 h at 37° C., the wells were washed 5 times for 5 min at room temperature with wash buffer (PBS with 0.05% v:v Tween 20) before addition of the 2nd antibody (goat-anti-rabbit Alexa Fluor 488; MoBiTec No. A-11008) in blocking solution (50 μl/well). After further incubation for 30 min at 37° C., wells were washed 5 times for 5 min at RT with 100 μl wash buffer at room temperature. Finally, 100 μl/well PBS were added and image analysis performed on the Cellomics “ArrayScan II” platform. For calculation of EC50 values, the nuclear fluorescence in cells treated with and without a reference HDAC inhibitor like SAHA or NVP-LBH-589 were taken as a positive and negative control, respectively. For EC50 determination, the percentage of positive cells was determined and EC50 calculation done from concentration-effect curves by means of non-linear regression.
EC50 [2] [µM],melting point [°C],Structure (SMILES),IC50 [1] [µM]
–,203.8 to 211.9,"O=C(/C=C/c1ccn(S(=O)(=O)c2ccc(-c3cn[nH]c3)cc2)c1)NO [Compound 19, (E)-N-Hydroxy-3-{1-[4-(1H-pyrazol-4-yl)-benzenesulfonyl]-1H-pyrrol-3-yl}-acrylamide]",0.07 to 5
–,227 to 228.6,"NCc1ccc(S(=O)(=O)n2ccc(/C=C/C(=O)NO)c2)cc1 [Compound 17, (E)-3-[1-(4-Aminomethyl-benzenesulfonyl)-1H-pyrrol-3-yl]-N-hydroxy-acrylamide]",0.07 to 5
–,199.7 to 202.3,"Nc1ccccc1NC(=O)/C=C/c1ccn(S(=O)(=O)c2ccc(-c3cccnc3)cc2)c1 [Compound 21, (E)-N-(2-Amino-phenyl)-3-[1-(4-pyridin-3-yl-benzenesulfonyl)-1H-pyrrol-3-yl]-acrylamide]",0.07 to 5
2.15 to 51.3,168 to 170,"O=C(/C=C/c1ccn(S(=O)(=O)c2ccc(CN3CCOCC3)cc2)c1)NO [Compound 27, (E)-N-Hydroxy-3-[1-(4-morpholin-4-ylmethyl-benzenesulfonyl)-1H-pyrrol-3-yl]acrylamide]",0.07 to 5
–,114 to 159.4,"O=C(/C=C/c1ccn(S(=O)(=O)c2cccc(-c3ccccc3)c2)c1)NO [Compound 23, (E)-3-[1-(Biphenyl-3-sulfonyl)-1H-pyrrol-3-yl]-N-hydroxy-acrylamide]",0.07 to 5
2.15 to 51.3,–,"CN(C)Cc1ccc(S(=O)(=O)n2ccc(/C=C/C(=O)NO)c2)cc1 [Compound 10, (E)-3-[1-(4-Dimethylaminomethyl-benzenesulfonyl)-1H-pyrrol-3-yl]-N-hydroxy-acrylamide]",0.07 to 5
–,219.3 to 221.4,"O=C(/C=C/c1ccn(S(=O)(=O)c2ccc(-c3ccncc3)cc2)c1)NO [Compound 18, (E)-N-Hydroxy-3-[1-(4-pyridin-4-yl-benzenesulfonyl)-1H-pyrrol-3-yl]-acrylamide]",0.07 to 5
–,232.3 to 240.9,"Nc1ccccc1NC(=O)C=Cc1ccn(S(=O)(=O)c2ccc(-c3cn[nH]c3)cc2)c1 [Compound 22, (E)-N-(2-Amino-phenyl)-3-{1-[4-(1H-1-pyrazol-4-yl)-benzenesulfonyl]-1H-pyrrol-3-yl}-acrylamide]",0.07 to 5
–,244.2 to 246.5,"Nc1ccccc1NC(=O)/C=C/c1ccn(S(=O)(=O)c2ccc(-c3ccncc3)cc2)c1 [Compound 20, (E)-N-(2-Amino-phenyl)-3-[1-(4-pyridin-4-yl-benzenesulfonyl)-1H-pyrrol-3-yl]-acrylamide]",0.07 to 5
–,160.7 to 166.6,"O=C(/C=C/c1ccn(S(=O)(=O)c2ccc(-n3cccn3)cc2)c1)NO [Compound 25, (E)-N-Hydroxy-3-[1-(4-pyrazol-1-yl-benzenesulfonyl)-1H-pyrrol-3-yl]-acrylamide]",0.07 to 5

# Further lines, the molecule ahead of its results:
Structure (SMILES),EC50 [2] [µM],melting point [°C],IC50 [1] [µM]
"CN(C)c1ccc(S(=O)(=O)n2ccc(C=CC(=O)NO)c2)cc1 [Compound 4, (E)-3-[1-(4-Dimethylamino-benzenesulfonyl)-1H-1-pyrrol-3-yl]-N-hydroxy-acrylamide]",2.15 to 51.3,–,0.8 to 21.6
"O=C(/C=C/c1ccn(S(=O)(=O)c2ccc(CN(CCO)CCc3cc4ccccc4[nH]3)cc2)c1)NO [Compound 28, (E)-N-Hydroxy-3-{1-[4-({(2-hydroxy-ethyl)-[2-(1H-indol-2-yl)-ethyl]-amino}-methyl)-benzenesulfonyl]-1H-pyrrol-3-yl}-acrylamide]",–,–,0.07 to 5
"O=C(/C=C/c1ccn(S(=O)(=O)c2ccc(CNCc3ccc4[nH]ccc4c3)cc2)c1)NO [Compound 15, (E)-N-Hydroxy-3-[1-(4-{[(1H-indol-5-ylmethyl)-amino]-methyl}-benzenesulfonyl)-1H-pyrrol-3-yl]-acrylamide]",–,–,0.07 to 5
"Nc1ccccc1NC(=O)/C=C/c1ccn(S(=O)(=O)c2ccc(-c3ccccn3)s2)c1 [Compound 26, (E)-N-(2-Amino-phenyl)-3-[1-(5-pyridin-2-yl-thiophene-2-sulfonyl)-1H-pyrrol-3-yl]-acrylamide]",–,–,0.07 to 5
"O=C(/C=C/c1ccn(S(=O)(=O)c2ccc(-c3ccccc3)cc2)c1)NO [Compound 3, (E)-3-[1-(Biphenyl-4-sulfonyl)-1H-pyrrol-3-yl]-N-hydroxy-acrylamide]",2.15 to 51.3,–,0.8 to 21.6
"O=C(/C=C/c1ccn(S(=O)(=O)c2ccc(CNCc3c[nH]c4ccccc34)cc2)c1)NO [Compound 12, (E)-N-Hydroxy-3-[1-(4-{[(1H-indol-3-ylmethyl)-amino]-methyl}-benzenesulfonyl)-1H-pyrrol-3-yl]-acrylamide]",–,–,0.07 to 5
"Cc1ccc(S(=O)(=O)n2ccc(C=CC(=O)NO)c2)cc1 [Compound 1, (E)-N-Hydroxy-3-[1-(toluene-4-sulfonyl)-1-H-pyrrol-3-yl]-acrylamide]",2.15 to 51.3,–,0.8 to 21.6
"Nc1ccccc1NC(=O)C=Cc1ccn(S(=O)(=O)c2ccc(-c3ccccc3)cc2)c1 [Compound 7, (E)-N-(2-Amino-phenyl)-3-[1-(biphenyl-4-sulfonyl)-1H-1-pyrrol-3-yl]-acrylamide]",2.15 to 51.3,–,0.8 to 21.6
"O=C(/C=C/c1ccn(S(=O)(=O)Cc2ccccc2)c1)NO [Compound 2, N-Hydroxy-3-(1-phenylmethanesulfonyl-1H-1-pyrrol-3-yl)-acrylamide]",2.15 to 51.3,–,0.8 to 21.6
"CN(C)c1ccc(S(=O)(=O)n2ccc(/C=C/C(=O)Nc3ccccc3N)c2)cc1 [Compound 8, (E)-N-(2-Amino-phenyl)-3-[1-(4-dimethylamino-benzenesulfonyl)-1H-pyrrol-3-yl]-acrylamide]",2.15 to 51.3,–,0.8 to 21.6
"O=C(/C=C/c1ccn(S(=O)(=O)c2ccc(-c3ccccn3)s2)c1)NO [Compound 24, (E)-N-Hydroxy-3-[1-(5-pyridin-2-yl-thiophene-2-sulfonyl)-1H-pyrrol-3-yl]-acrylamide]",–,–,0.07 to 5
"O=C(/C=C/c1ccn(S(=O)(=O)c2ccc(CNCc3cccnc3)cc2)c1)NO [Compound 11, (E)-N-Hydroxy-3-[1-(4-{[(pyridin-3-ylmethyl)-amino]-methyl}-benzenesulfonyl)-1H-pyrrol-3-yl]-acrylamide]",–,–,0.07 to 5
"O=C(/C=C/c1ccn(S(=O)(=O)c2ccc(CNCc3ccncc3)cc2)c1)NO [Compound 16, (E)-N-Hydroxy-3-[1-(4-{[(pyridin-4-ylmethyl)-amino]-methyl}-benzenesulfonyl)-1H-pyrrol-3-yl]-acrylamide]",–,–,0.07 to 5
"O=C(/C=C/c1ccn(S(=O)(=O)c2ccc(CNCc3ccccc3)cc2)c1)NO [Compound 13, (E)-3-{1-[4-(Benzylamino-methyl)-benzenesulfonyl]-1H-pyrrol-3-yl}-N-hydroxy-acrylamide]",–,–,0.07 to 5
"CC(C)CNCc1ccc(S(=O)(=O)n2ccc(/C=C/C(=O)NO)c2)cc1 [Compound 14, (E)-N-Hydroxy-3-{1-[4-(isobutylamino-methyl)-benzenesulfonyl]-1H-pyrrol-3-yl}-acrylamide]",–,–,0.07 to 5
"CN(CCc1cc2ccccc2[nH]1)Cc1ccc(S(=O)(=O)n2ccc(/C=C/C(=O)NO)c2)cc1 [Compound 9, (E)-N-Hydroxy-3-(1-[4-(([2-(1H-indol-2-yl)-ethyl]-methyl-amino)-methyl)-benzenesulfonyl]-1H-pyrrol-3-yl)-acrylamide]",2.15 to 51.3,–,0.07 to 5
